pEC50: −log10 of the molar value.
system: HCV pseudoparticles (genotype 1a HCV E1 and E2 envelope, H77C isolate); assay: microbe, parasite or virus in culture; type: cell-based; conditions: Hepatitis C virus, Huh-7, 48 h, HCV pseudoparticle infection of Huh7 cells, luciferase 2 days after infection; average of duplicates

| SMILES | pEC50 |
| --- | --- |
| COC(=O)[C@H](CCNC(=O)C(=O)Nc1ccc(-c2ccc(-c3ccccc3)cc2)cc1)NC(=O)c1ccc(Nc2nc(NC3(c4ccc(Cl)cc4)CC3)nc(OCC(F)(F)F)n2)cc1 [Compound 1527] | 9.82 |

same assay, conditions: Hepatitis C virus, Huh-7, 48 h, HCV pseudoparticles (genotype 1a, H77C) in Huh7 cells; average of duplicate; luciferase 2 days after infection

| SMILES | pEC50 |
| --- | --- |
| CC(C)(CNC(=O)C(=O)Nn1cccc1)CNC(=O)c1ccc(Nc2nc(NC3(c4ccc(Cl)cc4)CC3)nc(OCC(F)(F)F)n2)cc1 [Compound 3242] | 10.52 |
| COC(=O)[C@H](CNC(=O)C(=O)Nc1ccc(C(=O)c2ccccc2)cc1)NC(=O)c1ccc(Nc2nc(NC3(c4ccc(Cl)cc4)CC3)nc(OCC(F)(F)F)n2)cc1 [Compound 3084] | 8.45 |
| COC(=O)[C@H](CNC(=O)C(=O)Nc1ccc(Cc2ccccc2)cc1)NC(=O)c1ccc(Nc2nc(NC3(c4ccc(Cl)cc4)CC3)nc(OCC(F)(F)F)n2)cc1 [Compound 3091] | 8.55 |
| COC(=O)[C@H](CNC(=O)C(=O)Nc1ccc(-c2cc[nH]n2)cc1)NC(=O)c1ccc(Nc2nc(NC3(c4ccc(Cl)cc4)CC3)nc(OCC(F)(F)F)n2)cc1 [Compound 3193] | 8.99 |
| COC(=O)/C(CCNC(=O)C(=O)Nc1cncc(-c2nncn2C)c1)=N\C(=O)c1ccc(Nc2nc(NC3(c4ccc(Cl)cc4)CC3)nc(OCC(F)(F)F)n2)cc1 [Compound 3597] | 8.52 |

same assay, conditions: Hepatitis C virus, Huh-7, 48 h, HCV pseudoparticles, Huh7 cells, luciferase 2 days after infection; average of duplicates

| SMILES | pEC50 |
| --- | --- |
| COC(=O)[C@H](CNC(=O)C(=O)Nc1ccc(N2CCOCC2)nc1)NC(=O)c1ccc(Nc2nc(NC3(c4ccc(Cl)cc4)CC3)nc(OCC(F)(F)F)n2)cc1 [Compound 3703] | 8.88 |

same assay, conditions: Hepatitis C virus, Huh-7, 48 h, read-out: Activity (EC50 class), HCV pseudoparticle infection of Huh7 cells, luciferase 2 days after infection; EC50 expressed as class A/B

| SMILES | pEC50 |
| --- | --- |
| COC(=O)[C@H](CNC(=O)C(=O)NC1CCC(F)(F)CC1)NC(=O)c1ccc(Nc2nc(NC3(c4ccc(Cl)cc4)CC3)nc(OCC(F)(F)F)n2)cc1 [Compound 1057] | 8.00 to 11.00 |
| COC(=O)[C@H](CCNC(=O)C(=O)NCc1c(F)cccc1F)NC(=O)c1ccc(Nc2nc(NC3(c4ccc(Cl)cc4)CC3)nc(OCC(F)(F)F)n2)cc1 [Compound 1158] | 8.00 to 11.00 |
| COC(=O)[C@H](CNC(=O)C(=O)NC(C)(C)Cc1ccc(F)cc1)NC(=O)c1ccc(Nc2nc(NC3(c4ccc(Cl)cc4)CC3)nc(OCC(F)(F)F)n2)cc1 [Compound 1296] | 8.00 to 11.00 |
| COC(=O)[C@H](CCNC(=O)C(=O)NC1CC(C)(C)CC(C)(C)C1)NC(=O)c1ccc(Nc2nc(NC3(c4ccc(Cl)cc4)CC3)nc(OCC(F)(F)F)n2)cc1 [Compound 1071] | 8.00 to 11.00 |
| COC(=O)[C@H](CCNC(=O)C(=O)Nc1cccc(Cl)c1)NC(=O)c1ccc(Nc2nc(NC3(c4ccc(Cl)cc4)CC3)nc(OCC(F)(F)F)n2)cc1 [Compound 1499] | 8.00 to 11.00 |
| CC1CC(NC(=O)C(=O)NC[C@H](NC(=O)c2ccc(Nc3nc(NC4(c5ccc(Cl)cc5)CC4)nc(OCC(F)(F)F)n3)cc2)C(=O)O)CC(C)(C)C1 (stereo partly drawn) [Compound 1088] | 8.00 to 11.00 |
| COC(=O)[C@H](CNC(=O)C(=O)Nn1cnnc1)NC(=O)c1ccc(Nc2nc(NC3(c4ccc(Cl)cc4)CC3)nc(OCC(F)(F)F)n2)cc1 [Compound 1243] | 6.00 to 8.00 |
| COc1cccc(CNC(=O)C(=O)NCC[C@H](NC(=O)c2ccc(Nc3nc(NC4(c5ccc(Cl)cc5)CC4)nc(OCC(F)(F)F)n3)cc2)C(=O)O)c1 [Compound 1183] | 8.00 to 11.00 |
| COC(=O)[C@H](CCNC(=O)C(=O)Nc1ccc(-c2ccc(-c3ccccc3)cc2)cc1)NC(=O)c1ccc(Nc2nc(NC3(c4ccc(Cl)cc4)CC3)nc(OCC(F)(F)F)n2)cc1 [Compound 1527] | 8.00 to 11.00 |
| CC(C)(CNC(=O)C(=O)Nc1cccc(C(=O)N2CCCCC2)c1)CNC(=O)c1ccc(Nc2nc(NC3(c4ccc(Cl)cc4)CC3)nc(OCC(F)(F)F)n2)cc1 [Compound 1574] | 8.00 to 11.00 |
| COc1cc(NC(=O)C(=O)NCC[C@H](NC(=O)c2ccc(Nc3nc(NC4(c5ccc(Cl)cc5)CC4)nc(OCC(F)(F)F)n3)cc2)C(=O)O)ccc1-c1ccccc1 [Compound 1519] | 8.00 to 11.00 |
| CC(C)(CNC(=O)C(=O)Nc1ccc(CCC(=O)O)cc1)CNC(=O)c1ccc(Nc2nc(NC3(c4ccc(Cl)cc4)CC3)nc(OCC(F)(F)F)n2)cc1 [Compound 1483] | 8.00 to 11.00 |
| Cc1cc(C)n(CC2(CNC(=O)C(=O)NCC[C@H](NC(=O)c3ccc(Nc4nc(NC5(c6ccc(Cl)cc6)CC5)nc(OCC(F)(F)F)n4)cc3)C(=O)O)CC2)n1 [Compound 1427] | 8.00 to 11.00 |
| COCC(NC(=O)C(=O)NCC[C@H](NC(=O)c1ccc(Nc2nc(NC3(c4ccc(Cl)cc4)CC3)nc(OCC(F)(F)F)n2)cc1)C(=O)OC)C1CC1 (stereo partly drawn) [Compound 1371] | 8.00 to 11.00 |
| CC(C)(C)OC(=O)N1CCCC(CNC(=O)C(=O)NC[C@H](NC(=O)c2ccc(Nc3nc(NC4(c5ccc(Cl)cc5)CC4)nc(OCC(F)(F)F)n3)cc2)C(=O)O)C1 (stereo partly drawn) [Compound 1468] | 8.00 to 11.00 |
| COC(=O)[C@H](CCNC(=O)C(=O)NC1CCC(C(C)(C)C)CC1)NC(=O)c1ccc(Nc2nc(NC3(c4ccc(Cl)cc4)CC3)nc(OCC(F)(F)F)n2)cc1 (stereo partly drawn) [Compound 1108] | 8.00 to 11.00 |
| COC(=O)[C@H](CNC(=O)C(=O)NCC1CCCCC1)NC(=O)c1ccc(Nc2nc(NC3(c4ccc(Cl)cc4)CC3)nc(OCC(F)(F)F)n2)cc1 [Compound 1149] | 8.00 to 11.00 |
| CC(C)(CNC(=O)C(=O)Nc1cc(F)cc(F)c1)CNC(=O)c1ccc(Nc2nc(NC3(c4ccc(Cl)cc4)CC3)nc(OCC(F)(F)F)n2)cc1 [Compound 1540] | 8.00 to 11.00 |
| O=C(NCC[C@H](NC(=O)c1ccc(Nc2nc(NC3(c4ccc(Cl)cc4)CC3)nc(OCC(F)(F)F)n2)cc1)C(=O)O)C(=O)NCC1(COc2ccccc2)CC1 [Compound 1431] | 8.00 to 11.00 |

same assay, conditions: Hepatitis C virus, Huh-7, 48 h, read-out: Activity (EC50 class), HCV pseudoparticles, Huh7 cells, luciferase 2 days after infection; average of duplicates

| SMILES | pEC50 |
| --- | --- |
| CC(C)(CNC(=O)C(=O)Nc1nc2c(Cl)ccc(Cl)c2s1)CNC(=O)c1ccc(Nc2nc(NC3(c4ccc(Cl)cc4)CC3)nc(OCC(F)(F)F)n2)cc1 [Compound 3837] | 8.00 to 11.00 |
| CNS(=O)(=O)c1cccc(NC(=O)C(=O)NCC[C@H](NC(=O)c2ccc(Nc3nc(NC4(c5ccc(Cl)cc5)CC4)nc(OCC(F)(F)F)n3)cc2)C(=O)O)c1 [Compound 3651] | 8.00 to 11.00 |
| NC(=O)c1cccc(NC(=O)C(=O)NCC[C@H](NC(=O)c2ccc(Nc3nc(NC4(c5ccc(Cl)cc5)CC4)nc(OCC(F)(F)F)n3)cc2)C(=O)O)c1 [Compound 3615] | 8.00 to 11.00 |
| COC(=O)[C@H](CNC(=O)C(=O)Nc1ccc(N2CCOCC2)nc1)NC(=O)c1ccc(Nc2nc(NC3(c4ccc(Cl)cc4)CC3)nc(OCC(F)(F)F)n2)cc1 [Compound 3703] | 8.00 to 11.00 |
| COC(=O)[C@H](CNC(=O)C(=O)Nc1cccc(-c2nc(C)cs2)c1)NC(=O)c1ccc(Nc2nc(NC3(c4ccc(Cl)cc4)CC3)nc(OCC(F)(F)F)n2)cc1 [Compound 3725] | 8.00 to 11.00 |
| COC(=O)[C@H](CNC(=O)C(=O)Nc1ccc(Oc2ccc(Cl)cc2Cl)nc1)NC(=O)c1ccc(Nc2nc(NC3(c4ccc(Cl)cc4)CC3)nc(OCC(F)(F)F)n2)cc1 [Compound 3697] | 8.00 to 11.00 |
| O=C(NC[C@H](NC(=O)c1ccc(Nc2nc(NC3(c4ccc(Cl)cc4)CC3)nc(OCC(F)(F)F)n2)cc1)C(=O)Cl)C(=O)Nc1cccc(-n2ccnc2)c1 [Compound 3789] | 8.00 to 11.00 |

same assay, conditions: Hepatitis C virus, Huh-7, read-out: Activity (EC50 class), HCV pseudoparticles (genotype 1a, H77C) in Huh7 cells; EC50 expressed as class A/B

| SMILES | pEC50 |
| --- | --- |
| CC(C)(CNC(=O)C(=O)Nc1ccncc1)CNC(=O)c1ccc(Nc2nc(NC3(c4ccc(Cl)cc4)CC3)nc(OCC(F)(F)F)n2)cc1 [Compound 3241] | 8.00 to 11.00 |
| CC(C)(CNC(=O)C(=O)Nn1cccc1)CNC(=O)c1ccc(Nc2nc(NC3(c4ccc(Cl)cc4)CC3)nc(OCC(F)(F)F)n2)cc1 [Compound 3242] | 8.00 to 11.00 |
| CC(CNC(=O)C(=O)NC1CCCCC1)CNC(=O)c1ccc(Nc2nc(NC3(c4ccc(Cl)cc4)CC3)nc(OCC(F)(F)F)n2)cc1 (stereo not drawn) [Compound 3472] | 8.00 to 11.00 |
| Cn1cc(NC(=O)C(=O)NCC(C)(C)CNC(=O)c2ccc(Nc3nc(NC4(c5ccc(Cl)cc5)CC4)nc(OCC(F)(F)F)n3)cc2)cn1 [Compound 3176] | 8.00 to 11.00 |
| Cc1cc(NC(=O)C(=O)NC(C)(C)CNC(=O)c2ccc(Nc3nc(NC4(c5ccc(Cl)cc5)CC4)nc(OCC(F)(F)F)n3)cc2)no1 [Compound 3422] | 8.00 to 11.00 |
| CC(C)(CNC(=O)C(=O)Nc1ccc2c(c1)CCC2=O)CNC(=O)c1ccc(Nc2nc(NC3(c4ccc(Cl)cc4)CC3)nc(OCC(F)(F)F)n2)cc1 [Compound 3355] | 8.00 to 11.00 |
| Cc1nnnn1-c1cc(Nc2nc(NC3(c4ccc(Cl)cc4)CC3)nc(OCC(F)(F)F)n2)ccc1C(=O)NCC(C)(C)CNC(=O)C(N)=O [Compound 3519] | 8.00 to 11.00 |
| COc1cc(C)ccc1NC(=O)C(=O)NCC(C)(C)CNC(=O)c1ccc(Nc2nc(NC3(c4ccc(Cl)cc4)CC3)nc(OCC(F)(F)F)n2)cc1 [Compound 3070] | 8.00 to 11.00 |
| COC(=O)[C@H](CNC(=O)C(=O)Nc1ccc(CCO)cc1)NC(=O)c1ccc(Nc2nc(NC3(c4ccc(Cl)cc4)CC3)nc(OCC(F)(F)F)n2)cc1 [Compound 3086] | 8.00 to 11.00 |
| COC(=O)[C@H](CNC(=O)C(=O)Nc1ccc(C(=O)c2ccccc2)cc1)NC(=O)c1ccc(Nc2nc(NC3(c4ccc(Cl)cc4)CC3)nc(OCC(F)(F)F)n2)cc1 [Compound 3084] | 8.00 to 11.00 |
| COC(=O)/C(CCNC(=O)C(=O)Nc1ccc(-n2nc(C)cc2C)cc1)=N\C(=O)c1ccc(Nc2nc(NC3(c4ccc(Cl)cc4)CC3)nc(OCC(F)(F)F)n2)cc1 [Compound 3137] | 8.00 to 11.00 |
| COC(=O)[C@H](CNC(=O)C(=O)Nc1ccc(Cc2ccccc2)cc1)NC(=O)c1ccc(Nc2nc(NC3(c4ccc(Cl)cc4)CC3)nc(OCC(F)(F)F)n2)cc1 [Compound 3091] | 8.00 to 11.00 |
| CC(C)(CNC(=O)C(=O)Nc1ccc2c(c1)CCCC2=O)CNC(=O)c1ccc(Nc2nc(NC3(c4ccc(Cl)cc4)CC3)nc(OCC(F)(F)F)n2)cc1 [Compound 3263] | 8.00 to 11.00 |
| COc1cccc(CNC(=O)C(=O)NCC(C)(C)CNC(=O)c2ccc(Nc3nc(NC4(c5ccc(Cl)cc5)CC4)nc(OCC(F)(F)F)n3)cc2)c1 [Compound 3012] | 8.00 to 11.00 |
| CC(C)(CNC(=O)C(=O)Nc1cccc(C(F)(F)F)c1)CNC(=O)c1ccc(Nc2nc(NC3(c4ccc(Cl)cc4)CC3)nc(OCC(F)(F)F)n2)cc1 [Compound 3019] | 8.00 to 11.00 |
| COC(=O)[C@H](CNC(=O)C(=O)Nc1ccc(-c2cc[nH]n2)cc1)NC(=O)c1ccc(Nc2nc(NC3(c4ccc(Cl)cc4)CC3)nc(OCC(F)(F)F)n2)cc1 [Compound 3193] | 8.00 to 11.00 |
| CC(C)(CNC(=O)C(=O)Nc1ccccc1-n1ccnc1)CNC(=O)c1ccc(Nc2nc(NC3(c4ccc(Cl)cc4)CC3)nc(OCC(F)(F)F)n2)cc1 [Compound 3180] | 8.00 to 11.00 |
| COc1ccc(NC(=O)C(=O)NCC(C)(C)CNC(=O)c2ccc(Nc3nc(NC4(c5ccc(Cl)cc5)CC4)nc(OCC(F)(F)F)n3)cc2)cc1 [Compound 3007] | 8.00 to 11.00 |
| COC(=O)[C@H](CCNC(=O)C(=O)Nc1ccc(CCCl)cc1)NC(=O)c1ccc(Nc2nc(NC3(c4ccc(Cl)cc4)CC3)nc(OCC(F)(F)F)n2)cc1 [Compound 3115] | 8.00 to 11.00 |
| O=C(NCCC(NC(=O)c1ccc(Nc2nc(NC3(c4ccc(Cl)cc4)CC3)nc(OCC(F)(F)F)n2)cc1)C(=O)O)C(=O)Nc1ccc(-n2ccnc2)cc1 (stereo not drawn) [Compound 3521] | 8.00 to 11.00 |
| COC(=O)/C(CCNC(=O)C(=O)Nc1cncc(-c2nncn2C)c1)=N\C(=O)c1ccc(Nc2nc(NC3(c4ccc(Cl)cc4)CC3)nc(OCC(F)(F)F)n2)cc1 [Compound 3597] | 8.00 to 11.00 |

— patent US8916702B2 (priority 2012, dated 2014)
